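Step 1: Grow cells in 96-well plates. Step 2: Expose to compound for 48 hours at 5 concentrations. Step 3: Interpolate endpoints linearly; if unreached, use highest concentration. At the GI50, growth is halved. TGI denotes the concentration required for complete inhibition of growth.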
Key:
Assay in all cases: growth of human tumour cells (NCI), 48 h
NCI/ADR-RES ovarian = system: NCI/ADR-RES ovarian
MALME-3M melanoma = system: MALME-3M melanoma
HOP-62 NSCLC = system: HOP-62 NSCLC
NCI-H460 lung = system: NCI-H460 lung
SF-268 CNS = system: SF-268 CNS
HT29 colon = system: HT29 colon
UACC-257 melanoma = system: UACC-257 melanoma
UO-31 renal = system: UO-31 renal
SR leukemia = system: SR leukemia
RPMI-8226 leukemia = system: RPMI-8226 leukemia
SF-295 CNS = system: SF-295 CNS
BT-549 breast = system: BT-549 breast
SF-539 CNS = system: SF-539 CNS
T-47D breast = system: T-47D breast
A549 NSCLC = system: A549 NSCLC
SNB-19 CNS = system: SNB-19 CNS
RXF 393 renal = system: RXF 393 renal
CCRF-CEM leukemia = system: CCRF-CEM leukemia
HOP-92 NSCLC = system: HOP-92 NSCLC
SW-620 colon = system: SW-620 colon
NCI-H226 lung = system: NCI-H226 lung
NCI-H23 lung = system: NCI-H23 lung
ACHN renal = system: ACHN renal
HCC-2998 colon = system: HCC-2998 colon
NCI-H522 lung = system: NCI-H522 lung
MDA-MB-231 breast = system: MDA-MB-231 breast
IGROV1 ovarian = system: IGROV1 ovarian
HL-60(TB) leukemia = system: HL-60(TB) leukemia
COLO 205 colon = system: COLO 205 colon
U251 CNS = system: U251 CNS
HCT-116 colon = system: HCT-116 colon
SN12C renal = system: SN12C renal
K-562 leukemia = system: K-562 leukemia
SK-MEL-2 melanoma = system: SK-MEL-2 melanoma
SK-MEL-28 melanoma = system: SK-MEL-28 melanoma
HCT-15 colon = system: HCT-15 colon
LOX IMVI melanoma = system: LOX IMVI melanoma
MDA-MB-435 = system: MDA-MB-435
OVCAR-4 ovarian = system: OVCAR-4 ovarian
HS 578T breast = system: HS 578T breast
M14 melanoma = system: M14 melanoma
OVCAR-8 ovarian = system: OVCAR-8 ovarian
MCF7 breast = system: MCF7 breast
EKVX NSCLC = system: EKVX NSCLC
MOLT-4 leukemia = system: MOLT-4 leukemia
TK-10 renal = system: TK-10 renal
A498 renal = system: A498 renal
DU-145 prostate = system: DU-145 prostate
SNB-75 CNS = system: SNB-75 CNS
OVCAR-5 ovarian = system: OVCAR-5 ovarian
KM12 colon = system: KM12 colon
SK-MEL-5 melanoma = system: SK-MEL-5 melanoma
UACC-62 melanoma = system: UACC-62 melanoma
OVCAR-3 ovarian = system: OVCAR-3 ovarian
PC-3 prostate = system: PC-3 prostate
SK-OV-3 ovarian = system: SK-OV-3 ovarian
786-0 renal = system: 786-0 renal

Molecule CCS(=O)(=O)Nc1ccc(Oc2ccc(F)cc2F)c(-c2cn(C)c(=O)c3[nH]ccc23)c1 has a GI50 (NCI/ADR-RES ovarian) of 0.561 µM, a TGI (NCI/ADR-RES ovarian) of 39.4 µM and a GI50 (MALME-3M melanoma) of 0.202 µM. The TGI (MALME-3M melanoma) was 12.9 µM, the GI50 (HOP-62 NSCLC) was < 0.0245 µM and the TGI (HOP-62 NSCLC) was 26.2 µM. For the same molecule, the GI50 (NCI-H460 lung) was 0.302 µM, the TGI (NCI-H460 lung) was 19.3 µM and the GI50 (SF-268 CNS) was 1.57 µM. The TGI (SF-268 CNS) was 53.2 µM, the GI50 (HT29 colon) was < 0.01 µM and the TGI (HT29 colon) was 14.1 µM. For the same molecule, the GI50 (UACC-257 melanoma) was 0.0448 µM, the TGI (UACC-257 melanoma) was 23.1 µM and the GI50 (UO-31 renal) was < 0.01 µM. The TGI (UO-31 renal) was 12 µM, the GI50 (SR leukemia) was 0.0444 µM and the TGI (SR leukemia) was 30.7 µM. For the same molecule, the GI50 (RPMI-8226 leukemia) was < 0.0232 µM, the TGI (RPMI-8226 leukemia) was 17.5 µM and the GI50 (SF-295 CNS) was 0.0742 µM. For the same molecule, the TGI (SF-295 CNS) was 20.1 µM, the GI50 (BT-549 breast) was 0.366 µM and the TGI (BT-549 breast) was 21.3 µM. The GI50 (SF-539 CNS) was 0.0135 µM, the TGI (SF-539 CNS) was 16.1 µM and the GI50 (T-47D breast) was 0.0253 µM. It also gave a TGI (T-47D breast) of 30.1 µM, a GI50 (A549 NSCLC) of 0.152 µM and a TGI (A549 NSCLC) of 28.1 µM. The GI50 (SNB-19 CNS) was 0.31 µM, the TGI (SNB-19 CNS) was 30.9 µM and the GI50 (RXF 393 renal) was 1.62 µM. The TGI (RXF 393 renal) was 14.1 µM, the GI50 (CCRF-CEM leukemia) was 0.162 µM and the TGI (CCRF-CEM leukemia) was > 60 µM. It also gave a TGI (HOP-92 NSCLC) of 28.3 µM, a GI50 (SW-620 colon) of 1.65 µM and a TGI (SW-620 colon) of 25.8 µM. The GI50 (NCI-H226 lung) was 2.46 µM, the TGI (NCI-H226 lung) was 20.2 µM and the GI50 (NCI-H23 lung) was 0.0956 µM. For the same molecule, the TGI (NCI-H23 lung) was 13.5 µM, the GI50 (ACHN renal) was 0.153 µM and the TGI (ACHN renal) was 27.2 µM. For the same molecule, the GI50 (HCC-2998 colon) was 0.0342 µM, the TGI (HCC-2998 colon) was 1.38 µM and the GI50 (NCI-H522 lung) was < 0.01 µM. It also gave a TGI (NCI-H522 lung) of 5.92 µM, a GI50 (MDA-MB-231 breast) of 0.0494 µM and a TGI (MDA-MB-231 breast) of 17.5 µM. For the same molecule, the GI50 (IGROV1 ovarian) was 0.0327 µM, the TGI (IGROV1 ovarian) was 20.5 µM and the GI50 (HL-60(TB) leukemia) was < 0.01 µM. For the same molecule, the TGI (HL-60(TB) leukemia) was 0.249 µM, the GI50 (COLO 205 colon) was < 0.01 µM and the TGI (COLO 205 colon) was 6.29 µM. For the same molecule, the GI50 (U251 CNS) was 0.293 µM, the TGI (U251 CNS) was 16.8 µM and the GI50 (HCT-116 colon) was 0.0321 µM. For the same molecule, the TGI (HCT-116 colon) was 12.8 µM, the GI50 (SN12C renal) was 0.981 µM and the TGI (SN12C renal) was 31.2 µM. For the same molecule, the GI50 (K-562 leukemia) was 0.0322 µM, the TGI (K-562 leukemia) was > 62.6 µM and the GI50 (SK-MEL-2 melanoma) was 0.761 µM. It also gave a TGI (SK-MEL-2 melanoma) of 15.9 µM, a GI50 (SK-MEL-28 melanoma) of 1.64 µM and a TGI (SK-MEL-28 melanoma) of 21 µM. It also gave a GI50 (HCT-15 colon) of 0.0404 µM, a TGI (HCT-15 colon) of 19.5 µM and a GI50 (LOX IMVI melanoma) of 0.0124 µM. For the same molecule, the TGI (LOX IMVI melanoma) was 0.905 µM, the GI50 (MDA-MB-435) was < 0.0112 µM and the TGI (MDA-MB-435) was 13.3 µM. For the same molecule, the GI50 (OVCAR-4 ovarian) was 0.275 µM, the TGI (OVCAR-4 ovarian) was 37 µM and the GI50 (HS 578T breast) was < 0.0183 µM. The TGI (HS 578T breast) was 36.5 µM, the GI50 (M14 melanoma) was < 0.0138 µM and the TGI (M14 melanoma) was 17 µM. The GI50 (OVCAR-8 ovarian) was 0.253 µM, the TGI (OVCAR-8 ovarian) was 43.1 µM and the GI50 (MCF7 breast) was < 0.01 µM. The TGI (MCF7 breast) was 14.3 µM, the GI50 (EKVX NSCLC) was 0.196 µM and the TGI (EKVX NSCLC) was 31.9 µM. The GI50 (MOLT-4 leukemia) was 0.408 µM, the TGI (MOLT-4 leukemia) was 15.6 µM and the GI50 (TK-10 renal) was < 0.01 µM. The TGI (TK-10 renal) was 1.25 µM, the GI50 (A498 renal) was 0.157 µM and the TGI (A498 renal) was 4.01 µM. The GI50 (DU-145 prostate) was 2.88 µM, the TGI (DU-145 prostate) was 31.4 µM and the GI50 (SNB-75 CNS) was < 0.01 µM. For the same molecule, the TGI (SNB-75 CNS) was 0.986 µM, the GI50 (OVCAR-5 ovarian) was 1.29 µM and the TGI (OVCAR-5 ovarian) was 34.7 µM. For the same molecule, the GI50 (KM12 colon) was 0.109 µM, the TGI (KM12 colon) was 18.2 µM and the GI50 (SK-MEL-5 melanoma) was 0.0727 µM. The TGI (SK-MEL-5 melanoma) was 7.29 µM, the GI50 (UACC-62 melanoma) was < 0.01 µM and the TGI (UACC-62 melanoma) was 6.28 µM. The GI50 (OVCAR-3 ovarian) was 0.0402 µM, the TGI (OVCAR-3 ovarian) was 19.6 µM and the GI50 (PC-3 prostate) was 0.0656 µM. For the same molecule, the TGI (PC-3 prostate) was 49.4 µM, the GI50 (SK-OV-3 ovarian) was < 0.0109 µM and the TGI (SK-OV-3 ovarian) was 6.2 µM. The GI50 (786-0 renal) was 0.192 µM and the TGI (786-0 renal) was 18.1 µM.
